Here are results for 22 molecules from US20250171423A1, “PHARMACEUTICAL COMPOUNDS FOR THE TREATMENT OF COMPLEMENT MEDIATED DISORDERS” (Achillion Pharmaceuticals, Inc., priority 2020, published 2025).

This assay deals with T1, Human complement C1s enzyme (Homo sapiens, UniProt P09871).
T1 construct: purified from human serum, Complement Technology, Inc; purchased Complement Technology, Inc; host or cells: human serum
T1 sequence (P09871 438-688 limits assumed): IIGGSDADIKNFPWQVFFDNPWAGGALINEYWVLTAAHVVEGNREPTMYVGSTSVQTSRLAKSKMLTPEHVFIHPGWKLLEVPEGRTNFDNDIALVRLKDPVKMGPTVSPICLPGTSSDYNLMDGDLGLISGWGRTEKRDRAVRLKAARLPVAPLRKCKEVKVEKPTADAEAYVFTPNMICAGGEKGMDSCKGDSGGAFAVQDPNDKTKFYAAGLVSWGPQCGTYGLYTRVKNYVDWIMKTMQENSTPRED
T1 sequence (P09871 16-437 partner limits assumed): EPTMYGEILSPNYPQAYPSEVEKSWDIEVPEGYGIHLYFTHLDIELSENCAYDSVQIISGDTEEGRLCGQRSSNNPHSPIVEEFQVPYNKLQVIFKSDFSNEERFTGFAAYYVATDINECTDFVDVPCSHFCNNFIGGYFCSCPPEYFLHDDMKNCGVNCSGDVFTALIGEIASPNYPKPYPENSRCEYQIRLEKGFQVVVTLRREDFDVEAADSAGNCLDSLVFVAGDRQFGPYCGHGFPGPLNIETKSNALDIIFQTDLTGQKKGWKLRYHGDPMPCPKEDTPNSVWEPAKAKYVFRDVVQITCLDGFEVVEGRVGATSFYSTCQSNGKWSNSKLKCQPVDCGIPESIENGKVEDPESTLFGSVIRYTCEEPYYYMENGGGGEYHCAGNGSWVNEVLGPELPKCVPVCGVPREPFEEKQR
The assay is described as follows: Human C1s Enzyme Assay. It is filed as biochemical. To be noted: human C1s 1.16 nM, 5 min preincubation, substrate Z-L-Lys-SBzl 100 μM, A405; read-out: C1s Protease Activity. The essentials: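 C1s purified from human serum (1.16 nM final) was preincubated with compound for 5 min at room temperature in 50 mM Tris, 1 M NaCl, pH 7.5. Z-L-Lys-SBzl and DTNB were then added at 100 μM each, and A405 was followed for 30 min. IC50 came from nonlinear regression of reaction rates.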

A value given as a limit tells only on which side of the number the result lay.

As to `N=C(N)c1csc(CNC(=O)[C@@H]2C[C@H](C3CCCC3)CN2C(=O)CNC(=O)c2ccc(Oc3ccccc3)cc2)c1` [Compound 260, (2S,4R)-N-((4-carbamimidoylthiophen-2-yl)methyl)-4-cyclopentyl-1-((4-phenoxybenzoyl)glycyl) pyrrolidine-2-carboxamide], the IC50 was less than 100 nM.
On to `N=C(N)c1csc(CNC(=O)[C@@H]2C[C@@H](c3ccc(F)cc3)CN2C(=O)CNC(=O)CCCOc2ccccc2)c1` [Compound 164, (2S,4S)-N-((4-carbamimidoylthiophen-2-yl)methyl)-4-(4-fluorophenyl)-1-((4-phenoxybutanoyl)glycyl)pyrrolidine-2-carboxamide], for which the IC50 is less than 100 nM.
Take `N=C(N)c1csc(CNC(=O)[C@@H]2[C@H](O)[C@@H](F)CN2C(=O)CNC(=O)CCCOc2ccccc2)c1` [Compound 128, (2S,3S,4S)-N-((4-carbamimidoylthiophen-2-yl)methyl)-4-fluoro-3-hydroxy-1-((4-phenoxybutanoyl)glycyl)pyrrolidine-2-carboxamide]: the IC50 was less than 100 nM.
With `C[C@H](NC(=O)[C@@H]1C[C@]2(C)C[C@@H]2N1C(=O)CNC(=O)c1ccc(Oc2ccccc2)cc1)c1cc(C(=N)N)cs1` (single isomer, unassigned) [Compound 47, (1S,3S,5S)-N-((S*)-1-(4-carbamimidoylthiophen-2-yl)ethyl)-5-methyl-2-((4-phenoxy-benzoyl)glycyl)-2-azabicyclo[3.1.0]hexane-3-carboxamide] the figure was less than 100 nM.
The same measure for `COC[C@@]1(F)C[C@@H](C(=O)N[C@H](C)c2cc(C(=N)N)cs2)N(C(=O)CNC(=O)c2ccc(C(=O)c3ccccc3)cc2)C1` [Compound 218, (2S,4R)-1-((4-benzoylbenzoyl)glycyl)-N-((R)-1-(4-carbamimidoylthiophen-2-yl)ethyl)-4-fluoro-4-(methoxymethyl)pyrrolidine-2-carboxamide]: less than 100 nM; for `COC[C@@]12C[C@@H]1N(C(=O)CNC(=O)CCCOc1ccccc1)[C@H](C(=O)NCc1cc(C(=N)N)cs1)C2` [Compound 63, (1S,3S,5R)-N-((4-carbamimidoylthiophen-2-yl)methyl)-5-(methoxymethyl)-2-((4-phenoxybutanoyl)glycyl)-2-azabicyclo[3.1.0]hexane-3-carboxamide]: less than 100 nM; for `N=C(N)c1csc(CNC(=O)[C@@H]2C[C@H](C(F)(F)F)CN2C(=O)CNC(=O)CCCOc2ccccc2)c1` [Compound 59, (2S,4S)-N-((4-carbamimidoylthiophen-2-yl)methyl)-1-((4-phenoxybutanoyl)glycyl)-4-(trifluoromethyl)pyrrolidine-2-carboxamide]: less than 100 nM.
The same measure for `C/N=C(/NC)c1csc(CNC(=O)[C@@H]2C[C@]3(C)C[C@@H]3N2C(=O)CNC(=O)c2ccc(Oc3ccccc3)cc2)c1` [Compound 222, (1S,3S,5S)-N-((4-((E)-N,N′-dimethylcarbamimidoyl)thiophen-2-yl)methyl)-5-methyl-2-((4-phenoxybenzoyl)glycyl)-2-azabicyclo[3.1.0]hexane-3-carboxamide]: more than 1000 nM; for `C[C@@]12C[C@@H]1N(C(=O)CNC(=O)c1ccc(Oc3ccc(C(F)(F)F)cc3)cc1)[C@H](C(=O)NCc1cc(C(=N)N)cs1)C2` [Compound 92, (1S,3S,5S)-N-((4-carbamimidoylthiophen-2-yl)methyl)-5-methyl-2-((4-(4-(trifluoro-methyl)phenoxy)benzoyl)glycyl)-2-azabicyclo[3.1.0]hexane-3-carboxamide]: 100 to 1000 nM.
Turning to `C[C@@]12C[C@@H]1N(C(=O)CNC(=O)CCCOc1ccc(C(=O)O)cc1)[C@H](C(=O)NCc1cc(C(=N)N)cs1)C2` [Compound 80, 4-(4-((2-((1S,3S,5S)-3-(((4-carbamimidoylthiophen-2-yl)methyl)carbamoyl)-5-methyl-2-azabicyclo[3.1.0]hexan-2-yl)-2-oxoethyl)amino)-4-oxobutoxy)benzoic acid], the IC50 lay in the range of 100 to 1000 nM.
With `CC(C)C(NC(=O)[C@@H]1C[C@@H](OC(F)F)CN1C(=O)CNC(=O)c1ccc(Oc2ccccc2)cc1)c1cc(C(=N)N)cs1` (stereo in doubt) [Compound 188, (2S,4R)-N-((S)-1-(4-carbamimidoylthiophen-2-yl)-2-methylpropyl)-4-(difluoromethoxy)-1-((4-phenoxybenzoyl)glycyl)pyrrolidine-2-carboxamide] the figure was more than 1000 nM; with `CO[C@@H]1C[C@@H](C(=O)N[C@H](C)c2cc(C(=N)N)cs2)N(C(=O)CNC(=O)CCCOc2ccccc2)C1` [Compound 106, (2S,4R)-N-((R)-1-(4-carbamimidoylthiophen-2-yl)ethyl)-4-methoxy-1-((4-phenoxy-butanoyl)glycyl)pyrrolidine-2-carboxamide], less than 100 nM.
The same measure for `C[C@@H](NC(=O)[C@@H]1C[C@]2(C)C[C@@H]2N1C(=O)CNC(=O)CCCOc1ccc(F)cc1)c1cc(C(=N)N)cs1` [Compound 121, (1S,3S,5S)-N-((R)-1-(4-carbamimidoylthiophen-2-yl)ethyl)-2-((4-(4-fluorophenoxy)butanoyl)glycyl)-5-methyl-2-azabicyclo[3.1.0]hexane-3-carboxamide]: 100 to 1000 nM.
With `C[C@@H](NC(=O)[C@@H]1C[C@]2(COCCCCCC(=O)O)C[C@@H]2N1C(=O)CNC(=O)CCCOc1ccccc1)c1cc(C(=N)N)cs1` [Compound 169, 6-(((1S,3S,5R)-3-(((R)-1-(4-carbamimidoylthiophen-2-yl)ethyl)carbamoyl)-2-((4-phenoxybutanoyl)glycyl)-2-azabicyclo[3.1.0]hexan-5-yl)methoxy)hexanoic acid] the figure was less than 100 nM; with `CO/C(=N/C#N)c1csc(CNC(=O)[C@@H]2C[C@]3(C)C[C@@H]3N2C(=O)CNC(=O)c2ccc(Oc3ccccc3)cc2)c1` [Compound 31, methyl (E)-N-cyano-5-(((1S,3S,5S)-5-methyl-2-((4-phenoxybenzoyl)glycyl)-2-azabicyclo[3.1.0]hexane-3-carboxamido)methyl)thiophene-3-carbimidate], more than 1000 nM.
In the case of `O=C(NCC(=O)N1CC2(C[C@H]1C(=O)NCc1cc(-c3ncc[nH]3)cs1)OCCO2)c1ccc(Oc2ccccc2)cc1` [Compound 259, (S)-N-((4-(1H-imidazol-2-yl)thiophen-2-yl)methyl)-7-((4-phenoxybenzoyl)glycyl)-1,4-dioxa-7-azaspiro[4.4]nonane-8-carboxamide], the IC50 was less than 100 nM.
The same measure for `C[C@@H](NC(=O)[C@@H]1C[C@@H](OC(F)F)CN1C(=O)CNC(=O)c1ccc(C(=O)c2ccccc2)cc1)c1cc(C(=N)N)cs1` [Compound 203, (2S,4R)-1-((4-benzoylbenzoyl)glycyl)-N-((R)-1-(4-carbamimidoylthiophen-2-yl)ethyl)-4-(difluoromethoxy)pyrrolidine-2-carboxamide]: less than 100 nM.
With `N=C(N)c1csc(CNC(=O)[C@@H]2C[C@H](c3ccccc3)CN2C(=O)CNC(=O)c2ccc(Oc3ccccc3)cc2)c1` [Compound 15, (2S,4R)-N-((4-carbamimidoylthiophen-2-yl)methyl)-1-((4-phenoxybenzoyl)glycyl)-4-phenylpyrrolidine-2-carboxamide] the figure was 100 to 1000 nM.
`N=C(N)c1csc(CNC(=O)[C@@H]2C[C@@]3(CN2C(=O)CNC(=O)CCCOc2ccccc2)CC3(F)F)c1` [Compound 56, (3S,6S)-N-((4-carbamimidoylthiophen-2-yl)methyl)-1,1-difluoro-5-((4-phenoxy-butanoyl)glycyl)-5-azaspiro[2.4]heptane-6-carboxamide]: the IC50 was less than 100 nM.
Regarding `N=C(N)c1csc(CNC(=O)[C@@H]2C[C@@H](OCC3CC3)CN2C(=O)CNC(=O)c2ccc(Oc3ccccc3)cc2)c1` [Compound 50, (2S,4R)-N-((4-carbamimidoylthiophen-2-yl)methyl)-4-(cyclopropylmethoxy)-1-((4-phenoxybenzoyl)glycyl)pyrrolidine-2-carboxamide], the IC50 was less than 100 nM.
For `N=C(N)c1csc(CNC(=O)[C@@H]2C[C@@H](c3ccccc3)CN2C(=O)CNC(=O)CCCOc2ccccc2)c1` [Compound 156, (2S,4S)-N-((4-carbamimidoylthiophen-2-yl)methyl)-1-((4-phenoxybutanoyl)glycyl)-4-phenylpyrrolidine-2-carboxamide], the IC50 was less than 100 nM.
The same measure for `C[C@@]12C[C@@H]1N(C(=O)CNC(=O)CCCOc1ccc(S(F)(F)(F)(F)F)cc1)[C@H](C(=O)NCc1cc(C(=N)N)cs1)C2` [Compound 96, (1S,3S,5S)-N-((4-carbamimidoylthiophen-2-yl)methyl)-5-methyl-2-((4-(4-(pentafluoro-λ^6-sulfanyl)phenoxy)butanoyl)glycyl)-2-azabicyclo[3.1.0]hexane-3-carboxamide]: less than 100 nM.
